Legend:
[1] = target: T1, Serine/threonine-protein kinase D2 (Homo sapiens) (UniProt Q9BZL6); test: Inhibition of human full length PKD2 expressed in baculovirus assessed as substrate phosphorylation using fluorescence-labelled peptides as substrate at 0.06 uM after 90 mins by microfluidic peptide phosphorylation assay
T1 sequence (whole entry): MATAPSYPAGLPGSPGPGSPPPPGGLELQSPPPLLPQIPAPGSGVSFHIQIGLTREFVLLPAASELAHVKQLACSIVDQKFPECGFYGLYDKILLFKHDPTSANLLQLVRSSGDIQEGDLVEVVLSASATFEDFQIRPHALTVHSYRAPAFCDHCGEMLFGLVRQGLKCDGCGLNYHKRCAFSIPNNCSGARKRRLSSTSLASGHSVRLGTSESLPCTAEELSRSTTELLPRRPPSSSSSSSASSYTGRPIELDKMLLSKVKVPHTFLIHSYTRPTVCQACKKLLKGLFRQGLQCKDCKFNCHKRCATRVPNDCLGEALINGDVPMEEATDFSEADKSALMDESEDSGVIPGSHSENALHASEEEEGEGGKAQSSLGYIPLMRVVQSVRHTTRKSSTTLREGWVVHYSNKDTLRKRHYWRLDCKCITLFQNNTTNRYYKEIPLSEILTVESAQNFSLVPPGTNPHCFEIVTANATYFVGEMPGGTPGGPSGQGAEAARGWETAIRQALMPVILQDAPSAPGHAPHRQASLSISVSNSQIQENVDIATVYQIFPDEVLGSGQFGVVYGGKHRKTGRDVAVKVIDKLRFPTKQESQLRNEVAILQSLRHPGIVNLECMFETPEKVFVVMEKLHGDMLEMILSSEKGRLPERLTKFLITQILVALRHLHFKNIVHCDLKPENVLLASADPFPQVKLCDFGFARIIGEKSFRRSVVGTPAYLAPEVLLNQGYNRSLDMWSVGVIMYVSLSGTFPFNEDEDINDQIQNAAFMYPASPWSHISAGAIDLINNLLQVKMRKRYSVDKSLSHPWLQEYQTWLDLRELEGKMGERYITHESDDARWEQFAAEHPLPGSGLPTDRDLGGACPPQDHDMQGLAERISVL

[2] = target: T2, Serine/threonine-protein kinase BRSK2 (Homo sapiens) (UniProt Q8IWQ3); test: Inhibition of human truncated BRSK2 expressed in baculovirus assessed as substrate phosphorylation using fluorescence-labelled peptides as substrate at 70 uM after 90 mins by microfluidic peptide phosphorylation assay
T2 sequence (whole entry): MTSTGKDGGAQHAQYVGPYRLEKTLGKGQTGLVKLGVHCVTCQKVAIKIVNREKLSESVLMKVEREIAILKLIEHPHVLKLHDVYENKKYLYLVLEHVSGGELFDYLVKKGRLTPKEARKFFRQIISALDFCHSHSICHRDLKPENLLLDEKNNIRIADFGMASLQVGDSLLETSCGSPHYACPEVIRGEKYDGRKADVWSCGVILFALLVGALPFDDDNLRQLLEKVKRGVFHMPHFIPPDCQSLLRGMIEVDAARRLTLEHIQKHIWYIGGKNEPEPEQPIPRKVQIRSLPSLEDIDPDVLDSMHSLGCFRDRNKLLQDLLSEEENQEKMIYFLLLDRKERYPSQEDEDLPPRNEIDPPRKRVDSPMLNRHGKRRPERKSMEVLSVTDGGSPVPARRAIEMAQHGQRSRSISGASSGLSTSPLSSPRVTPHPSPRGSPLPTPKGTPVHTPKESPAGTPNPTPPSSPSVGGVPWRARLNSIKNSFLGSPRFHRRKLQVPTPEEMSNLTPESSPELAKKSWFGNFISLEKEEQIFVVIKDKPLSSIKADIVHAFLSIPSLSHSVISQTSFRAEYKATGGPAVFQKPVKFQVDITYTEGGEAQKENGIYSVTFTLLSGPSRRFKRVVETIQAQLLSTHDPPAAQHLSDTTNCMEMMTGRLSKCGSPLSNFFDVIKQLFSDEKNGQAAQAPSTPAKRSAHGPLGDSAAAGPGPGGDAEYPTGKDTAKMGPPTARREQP

[3] = target: Serine/threonine-protein kinase pim-1 (Homo sapiens) (UniProt P11309); test: Inhibition of human full length PIM1 expressed in baculovirus assessed as substrate phosphorylation using fluorescence-labelled peptides as substrate at 2 uM after 90 mins by microfluidic peptide phosphorylation assay
Sequence of Serine/threonine-protein kinase pim-1 (Homo sapiens) (P11309 whole entry, looked up, the tested form may be a part): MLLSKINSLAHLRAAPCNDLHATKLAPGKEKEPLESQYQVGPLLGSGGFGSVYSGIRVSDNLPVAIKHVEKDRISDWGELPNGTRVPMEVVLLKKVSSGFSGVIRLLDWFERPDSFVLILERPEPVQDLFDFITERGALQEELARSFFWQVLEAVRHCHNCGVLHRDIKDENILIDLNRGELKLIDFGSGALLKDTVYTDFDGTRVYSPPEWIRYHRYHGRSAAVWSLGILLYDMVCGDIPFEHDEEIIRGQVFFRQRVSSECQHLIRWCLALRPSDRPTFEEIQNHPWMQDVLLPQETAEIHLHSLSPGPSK

[4] = test system: T3, Receptor-type tyrosine-protein kinase FLT3 (Homo sapiens), P36888 [D835Y]; test: Inhibition of human FLT3 D835Y mutant catalytic domain expressed in baculovirus assessed as substrate phosphorylation using fluorescence-labelled peptides as substrate at 0.1 uM after 90 mins by microfluidic peptide phosphorylation assay
T3 sequence (whole entry): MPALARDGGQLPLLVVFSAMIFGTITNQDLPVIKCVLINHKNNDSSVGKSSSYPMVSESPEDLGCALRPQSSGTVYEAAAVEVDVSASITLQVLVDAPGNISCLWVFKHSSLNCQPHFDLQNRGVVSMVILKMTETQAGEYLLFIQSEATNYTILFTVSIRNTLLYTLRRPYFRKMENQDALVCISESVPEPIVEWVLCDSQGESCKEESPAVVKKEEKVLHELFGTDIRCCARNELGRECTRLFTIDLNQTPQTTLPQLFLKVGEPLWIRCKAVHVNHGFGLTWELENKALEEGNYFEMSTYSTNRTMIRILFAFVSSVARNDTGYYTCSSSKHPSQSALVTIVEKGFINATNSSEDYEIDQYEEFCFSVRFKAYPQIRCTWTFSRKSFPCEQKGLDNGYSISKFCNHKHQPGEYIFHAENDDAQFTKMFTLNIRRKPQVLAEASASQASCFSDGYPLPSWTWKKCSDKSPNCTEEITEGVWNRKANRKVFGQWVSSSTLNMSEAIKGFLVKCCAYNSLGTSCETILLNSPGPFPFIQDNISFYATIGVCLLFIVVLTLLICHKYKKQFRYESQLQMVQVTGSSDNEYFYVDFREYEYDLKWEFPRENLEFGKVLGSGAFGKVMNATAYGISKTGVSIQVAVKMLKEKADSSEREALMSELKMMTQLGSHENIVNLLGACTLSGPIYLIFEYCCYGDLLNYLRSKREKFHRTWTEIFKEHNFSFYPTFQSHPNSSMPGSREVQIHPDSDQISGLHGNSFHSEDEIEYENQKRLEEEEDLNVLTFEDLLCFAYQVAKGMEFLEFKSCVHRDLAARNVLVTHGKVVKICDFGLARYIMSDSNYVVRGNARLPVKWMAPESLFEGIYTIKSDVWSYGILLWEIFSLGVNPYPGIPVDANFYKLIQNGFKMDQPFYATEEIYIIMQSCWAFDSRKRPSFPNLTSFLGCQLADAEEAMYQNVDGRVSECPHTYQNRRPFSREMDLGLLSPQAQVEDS

## NC1(Cc2ccc(Cl)cc2)CCN(c2ncnc3[nH]ccc23)CC1
[1]
  inhibition: 1.5%

## CNCc1ccc(-c2ncnc3[nH]cnc23)cc1
[2]
  inhibition: 43%

## NC1CCN(c2ncnc3[nH]ccc23)CC1
[3]
  inhibition: 2%

## C[C@H](CN(C)C)Oc1nc(Nc2cc3cccc(Cl)c3cn2)cnc1C#N
[4]
  inhibition: 27%

From ChEMBL document CHEMBL3132769, “Fragment growing to retain or alter the selectivity of anchored kinase hinge-binding fragments” (Medchemcomm, 2014)
